A short description of this data set: Drug plasma levels in the Example 9 trial. The following applies: 10 mg single oral dose.

From the text: Non-elderly adults were enrolled in a cross-over, double-blind trial. […] Drug plasma levels were obtained at the same times.

Consider `CCN(C(C)=O)c1cccc(-c2ccnc3c(C#N)cnn23)c1` [zaleplon, N-[3-(3-cyanopyrazole[1,5-a]pyrimidin-7-yl)phenyl]-N-ethylacetamide], for which the “Time post-dose at which drug plasma levels peaked” value turned out to be 1.5 h.

These data come from US20120039954A1, “METHOD OF TREATING INSOMNIA” (SOMNUS THERAPEUTICS, INC., priority 2008, published 2012).
